The target in assay [1] is T1, murine IDO (Mus musculus, UniProt P28776).
T1 construct: expressed in transfected cells; host or cells: 293-T-REx cells (Invitrogen), doxycycline-inducible CMV-tet promoter
Briefly: Cell based IDO/kynurenine assay in 293-T-Rex cells expressing murine IDO. The settings on record: cells expressing murine IDO, read-out: mIDO EC50. As for the experimental part: Transfected cells were selected in DBZ medium (DMEM, 10% FBS, 1× Penicillin+Streptomycin, 2 mM L-glutamine, 5 μg/mL blasticidin and 25 μg/ml Zeocin) at 37° C. with a 5% CO2 in air atmosphere. Individual clones were isolated by limiting dilution cloning from these populations.
The cells incubated in Neutral medium serve as negative control of the assay. The cells incubated in Induction medium and without inhibitor serve as the positive control of the assay. The incubation is carried out for 16 h at 37° C. in a cell culture incubator. 200 μL of medium are transferred to U-bottom polypropylene 96-well plates containing 25 μL of 30% TCA, incubated 30 minutes at 60° C. and centrifuged at 3400 g for 5 minutes. 150 μL of the clear supernatant is transferred to a polystyrene 96-well plate containing 50 μL of 4% (w/v) of p-dimethylaminobenzaldehyde in acetic acid, incubated for 10 min. Kynurenine concentration is determined by measuring the absorbance at 480 nm.

The target in assay [2] is human IDO (Homo sapiens, UniProt P14902). In words: Cell based IDO/kynurenine assay in IDO-293-T-Rex cells. The settings on record: kynurenine production, read-out: hIDO EC50. An outline of the steps: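 293-T-REx cells stably carrying doxycycline-inducible human or murine IDO were incubated with inhibitors in induction medium for 16 h at 37° C. Medium was TCA-treated at 60° C and reacted with p-dimethylaminobenzaldehyde. Kynurenine was quantified by absorbance at 480 nm.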
Sequence of human IDO (P14902 whole entry): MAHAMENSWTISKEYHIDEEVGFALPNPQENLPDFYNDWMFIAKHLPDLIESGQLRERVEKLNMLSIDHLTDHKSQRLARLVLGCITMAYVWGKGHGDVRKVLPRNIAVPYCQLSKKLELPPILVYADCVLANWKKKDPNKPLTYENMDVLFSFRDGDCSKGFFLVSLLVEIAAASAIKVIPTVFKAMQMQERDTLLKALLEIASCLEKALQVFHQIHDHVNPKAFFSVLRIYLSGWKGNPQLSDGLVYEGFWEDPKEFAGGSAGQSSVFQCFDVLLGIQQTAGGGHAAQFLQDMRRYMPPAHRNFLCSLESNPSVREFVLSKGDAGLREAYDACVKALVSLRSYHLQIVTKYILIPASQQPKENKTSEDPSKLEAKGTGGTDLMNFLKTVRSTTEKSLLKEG

Assay [3] addresses purified human IDO protein (Homo sapiens, UniProt P14902). In words: Enzymatic IDO assay (kynurenine production, absorbance 480 nm). The following applies: enzymatic activity.
[4] abbreviates: Table 16, 293T cells expressing human IDO.
The mark [5] stands for this setting: hIDO IC50, Table 16, recombinant human IDO.
The mark [6] stands for this setting: Table 15, 293T cells expressing human IDO.
[7] abbreviates: hIDO IC50, Table 15, recombinant human IDO.

Read-outs that look alike come from different tables or passages of the source.

T1 sequence (P28776 whole entry): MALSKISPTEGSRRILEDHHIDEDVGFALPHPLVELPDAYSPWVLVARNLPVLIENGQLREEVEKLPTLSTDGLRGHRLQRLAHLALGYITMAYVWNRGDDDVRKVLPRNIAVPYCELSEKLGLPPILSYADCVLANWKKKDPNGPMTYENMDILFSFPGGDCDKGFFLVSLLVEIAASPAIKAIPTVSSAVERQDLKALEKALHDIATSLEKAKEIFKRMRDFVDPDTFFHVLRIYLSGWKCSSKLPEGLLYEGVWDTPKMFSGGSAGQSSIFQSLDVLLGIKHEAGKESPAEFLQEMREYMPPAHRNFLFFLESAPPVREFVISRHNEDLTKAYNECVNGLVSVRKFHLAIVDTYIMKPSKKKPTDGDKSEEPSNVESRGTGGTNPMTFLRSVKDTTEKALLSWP
Sequence of purified human IDO protein (P14902 whole entry P110S/E119G): as the sequence (P14902 whole entry) above, with P110S, E119G counted along it

For `NOCc1cccc([N+](=O)[O-])c1` [compound 317, O-(3-nitrobenzyl)hydroxylamine], the EC50 in assay [1] (Table 16) is less than 10 µM; in assay [2] (setting [4]), less than 10 µM; in assay [2] (293T cell line stably expressing human IDO, values reported in ranges), less than 20 µM. Further, the IC50 was less than 10 µM in assay [3] (setting [5]) and less than 20 µM in assay [3] (hIDO IC50, recombinant human IDO, values reported in ranges).
For `NOCc1ccc(F)cc1` [compound 774, O-(4-fluorobenzyl)hydroxylamine], the EC50 in assay [1] (Table 16) and in assay [2] (setting [4]) was less than 10 µM throughout. Also, the IC50 in assay [3] (setting [5]) was less than 10 µM.
For the compound `NOCc1ccccc1[N+](=O)[O-]` [compound 811, O-(2-nitrobenzyl)hydroxylamine], the EC50 is 10 to 100 µM in assay [1] (Table 16) and less than 10 µM in assay [2] (setting [4]). Besides, in assay [3] (setting [5]), the IC50 is less than 10 µM.
Take `NOCc1ccc(C(F)(F)F)cc1` [compound 934, O-(4-(trifluoromethyl)benzyl)hydroxylamine]: the EC50 in assay [1] (Table 16) and in assay [2] (setting [4]) was less than 10 µM in each case. Also, the IC50 in assay [3] (setting [5]) was less than 10 µM.
As to `NOCc1ccc([N+](=O)[O-])cc1` [compound 1014, O-(4-nitrobenzyl)hydroxylamine], the values for the EC50 in assay [1] (Table 16) and in assay [2] (setting [4]) were 10 to 100 µM and less than 10 µM, respectively. The IC50 in assay [3] (setting [5]) was 10 to 100 µM.
For the compound `NOCc1ccc(CON)cc1` [compound 1492, O,O′-(1,4-phenylenebis(methylene))bis(hydroxylamine)], the EC50 in assay [1] (Table 16) was 10 to 100 µM; in assay [2] (setting [4]), less than 10 µM. For the same compound, the IC50 in assay [3] (setting [5]) is 10 to 100 µM.
On to `NOCc1cccc(Br)c1` [compound 1656, O-(3-bromobenzyl)hydroxylamine], for which the EC50 in assay [1] (Table 16) and in assay [2] (setting [4]) was less than 10 µM throughout. In assay [3] (setting [5]), the 50% inhibitory concentration (IC50) is less than 10 µM.
Turning to `NOCc1cc(F)cc(Cl)c1` [compound 1660, O-(3-chloro-5-fluorobenzyl)hydroxylamine], the half-maximal effective concentration (EC50) in assay [1] (Table 15) and in assay [2] (setting [6]) was less than 10 µM each time. In addition, in assay [3] (setting [7]), the IC50 was less than 10 µM.
As to `NOCc1ccccc1NCc1ccccc1` [compound 1662, 2-(aminooxymethyl)-N-benzylaniline], the EC50 is 100 to 1000 µM in assay [1] (Table 15) and less than 10 µM in assay [2] (setting [6]). Moreover, in assay [3] (setting [7]), the IC50 was less than 10 µM.
For the compound `NOCc1ccccc1` [compound 1666, O-benzylhydroxylamine], the EC50 in assay [1] (Table 16) and in assay [2] (setting [4]) was less than 10 µM each time. Besides, the IC50 in assay [3] (setting [5]) was less than 10 µM.
Turning to `NOCc1c(F)c(F)c(F)c(F)c1F` [compound 1667, O-(perfluorobenzyl)hydroxylamine], the EC50 in assay [1] (Table 16) was 10 to 100 µM; in assay [2] (setting [4]), less than 10 µM. For the same compound, in assay [3] (setting [5]), the IC50 was in the range of 10 to 100 µM.
Regarding `NOC1CCCCO1` (stereo not drawn) [compound 1669, O-(tetrahydro-2H-pyran-2-yl)hydroxylamine], the EC50 in assay [1] (Table 16) and in assay [2] (setting [4]) was less than 10 µM throughout. The IC50 in assay [3] (setting [5]) was 10 to 100 µM.
Consider `NOCc1ccc(F)c(Cl)c1` [compound 1673, O-(3-chloro-4-fluorobenzyl)hydroxylamine], for which the EC50 is greater than 1000 µM in assay [1] (Table 16) and less than 10 µM in assay [2] (setting [4]). In addition, the IC50 in assay [3] (setting [5]) was in the range of 100 to 1000 µM.
For `NOCc1c(F)cccc1Cl` [compound 1674, O-(2-chloro-6-fluorobenzyl)hydroxylamine], the EC50 in assay [1] (Table 15) was 10 to 100 µM; in assay [2] (setting [6]), less than 10 µM. For the same compound, the IC50 in assay [3] (setting [7]) lay within 10 to 100 µM.
With `NOCc1ccccc1Br` [compound 1675, O-(2-bromobenzyl)hydroxylamine], the EC50 in assay [1] (Table 16) and in assay [2] (setting [4]) was less than 10 µM in each case. In addition, in assay [3] (setting [5]), the IC50 was less than 10 µM.
Take `NOCc1ccc(F)cc1Cl` [compound 1676, O-(2-chloro-4-fluorobenzyl)hydroxylamine]: the EC50 in assay [1] (Table 15) is 10 to 100 µM; in assay [2] (setting [6]), less than 10 µM. In addition, the half-inhibitory concentration (IC50) in assay [3] (setting [7]) was less than 10 µM.
Turning to `NOCc1ccccc1C(F)(F)F` [compound 1677, O-(2-(trifluoromethyl)benzyl)hydroxylamine], the EC50 in assay [1] (Table 16) is 10 to 100 µM; in assay [2] (setting [4]) it was less than 10 µM. Moreover, the IC50 in assay [3] (setting [5]) is less than 10 µM.
Turning to `COc1ccccc1CON` [compound 1678, O-(2-methoxybenzyl)hydroxylamine], the EC50 in assay [1] (Table 16) was 10 to 100 µM; in assay [2] (setting [4]), less than 10 µM. Besides, the IC50 in assay [3] (setting [5]) lay in the range of 10 to 100 µM.
For `NOCCOc1ccccc1` [compound 1679, O-(2-phenoxyethyl)hydroxylamine], the EC50 in assay [1] (Table 16) and in assay [2] (setting [4]) was less than 10 µM throughout. Besides, the IC50 in assay [3] (setting [5]) is less than 10 µM.
As for `COc1cccc(CON)c1` [compound 1682, O-(3-methoxybenzyl)hydroxylamine], the EC50 in assay [1] (Table 16) and in assay [2] (setting [4]) was less than 10 µM each time. Moreover, in assay [3] (setting [5]), the IC50 is less than 10 µM.
Take `COC(=O)c1ccc(CON)cc1` [compound 1684, methyl 4-(aminooxymethyl)benzoate]: the figures for the EC50 in assay [1] (Table 16) and in assay [2] (setting [4]) were 10 to 100 µM and less than 10 µM, respectively. For the same compound, the IC50 in assay [3] (setting [5]) is less than 10 µM.
On to `Cc1cccc(CON)c1` [compound 1692, O-(3-methylbenzyl)hydroxylamine], for which the EC50 in assay [1] (Table 16) is 10 to 100 µM; in assay [2] (setting [4]), less than 10 µM. Also, in assay [3] (setting [5]), the IC50 was 10 to 100 µM.
Regarding `NOCCCc1ccccc1` [compound 1693, O-(3-phenylpropyl)hydroxylamine], the EC50 is 10 to 100 µM in assay [1] (Table 16) and less than 10 µM in assay [2] (setting [4]). The IC50 in assay [3] (setting [5]) lay in the range of 10 to 100 µM.
For `NOCc1ccncc1` [compound 1737, O-(pyridin-4-ylmethyl)hydroxylamine], the EC50 in assay [1] (Table 15) and in assay [2] (setting [6]) was less than 10 µM throughout. For the same compound, the IC50 in assay [3] (setting [7]) lay within 10 to 100 µM.
With `NOCc1ccccn1` [compound 1739, O-(pyridin-2-ylmethyl)hydroxylamine], the half-maximal effective concentration (EC50) in assay [1] (Table 15) and in assay [2] (setting [6]) was less than 10 µM throughout. Moreover, the IC50 in assay [3] (setting [7]) lay in the range of 10 to 100 µM.
With `NOCc1cc(Cl)ccc1-c1ccc2[nH]ccc2c1` [compound 1930, O-(5-chloro-2-(1H-indol-5-yl)benzyl)hydroxylamine], the EC50 in assay [2] (setting [6]) was less than 10 µM. Besides, the 50% inhibitory concentration (IC50) in assay [3] (setting [7]) was less than 10 µM.
For the compound `NOCc1cc(Cl)ccc1-c1cccs1` [compound 1931, O-(5-chloro-2-(thiophen-2-yl)benzyl)hydroxylamine], the EC50 in assay [2] (setting [6]) is less than 10 µM. In addition, the IC50 in assay [3] (setting [7]) was less than 10 µM.
For the compound `NOCc1cc(Cl)ccc1-c1ccsc1` [compound 1932, O-(5-chloro-2-(thiophen-3-yl)benzyl)hydroxylamine], the EC50 in assay [2] (setting [6]) is less than 10 µM. Further, in assay [3] (setting [7]), the IC50 was less than 10 µM.
Consider `NOC(COCc1ccccc1)c1ccccc1` (stereo not drawn) [compound 1933, O-(2-(benzyloxy)-1-phenylethyl)hydroxylamine], for which the EC50 in assay [2] (setting [6]) is less than 10 µM. Further, the IC50 in assay [3] (setting [7]) was less than 10 µM.
As to `CN(C)c1ccc(-c2ccc(Cl)cc2CON)cc1` [compound 1934, 2′-(aminooxymethyl)-4′-chloro-N,N-dimethylbiphenyl-4-amine], the EC50 in assay [2] (setting [6]) is less than 10 µM. The IC50 in assay [3] (setting [7]) is less than 10 µM.
On to `COC(=O)c1ccc(-c2ccc(Cl)cc2CON)cc1` [compound 1935, methyl 2′-(aminooxymethyl)-4′-chlorobiphenyl-4-carboxylate], for which the EC50 in assay [2] (setting [6]) is less than 10 µM. Further, the IC50 in assay [3] (setting [7]) is less than 10 µM.
On to `NOC(COc1ccccc1)c1ccccc1` (stereo not drawn) [compound 1937, O-(2-phenoxy-1-phenylethyl)hydroxylamine], for which the EC50 in assay [2] (setting [6]) was less than 10 µM. Besides, the IC50 in assay [3] (setting [7]) was less than 10 µM.
Take `NOC(CCC1CCCCC1)c1ccccc1` (stereo not drawn) [compound 1938, O-(3-cyclohexyl-1-phenylpropyl)hydroxylamine]: the EC50 in assay [2] (setting [6]) is less than 10 µM. Also, in assay [3] (setting [7]), the IC50 was less than 10 µM.

For the origin of these results see US20130289083A1, “IDO Inhibitors” (priority 2007, published 2013).
